Measured values: US11427581B2, “JAK inhibitor and use thereof” (ZHUHAI UNITED LABORATORIES CO., LTD., priority 2018, dated 2022)

molecular target: JAK3 (h) (Homo sapiens (Human), UniProt P52333); assay: In vitro activity assay of JAK3 kinase (radiometric 33P-ATP, Eurofins); format: biochemical; settings: recombinant human JAK3
Experimental: (§1) Recombinant human-derived JAK1, JAK2, JAK3, Tyk2 protease, main instruments and reagents were provided by Eurofins in the UK
(§2) JAK2, JAK3 and TYK2 dilution: 20 mM MOPS, 1 mM EDTA, 0.01% Brij-35.5% glycerol, 0.1% β-mercaptoethanol. 1 mg/mL BSA; JAK1 dilution: 20 mM TRIS, 0.2 mM EDTA, 0.1% β-mercaptoethanol, 0.01% Brij-35.5% glycerol. All compounds were prepared as 100% DMSO solutions, and the concentration of the compound reached 50 times the final measured concentration. The test compound was diluted with a 3-fold concentration gradient, the final concentration was 10 μM to 0.001 μM in total 9 concentrations, and the content of DMSO in the detection reaction was 2%. The working stock solution of the compound was added to the wells as the first component of the reaction, and then the remaining components were added according to the protocol detailed below.
(§3) JAK3 (h) was incubated with 8 mM MOPS pH 7.0, 0.2 mM EDTA, 500 μM […], 10 mM magnesium acetate and [γ-^33P]-ATP (activity and concentration were formulated as needed). Mg/ATP mixture was added to initiate the reaction. After incubating at room temperature for 40 minutes, the reaction mixture was added with 0.5% phosphoric acid to stop the reaction. Then 10 μL the reaction solution was spotted on a P30 filter pad and washed with 0.425% phosphoric acid three times and methanol once over 4 minutes, dried, and counted scintillation.
(§4) The IC50 results were analyzed by XLFIT5 (205 formula) of IDBS Company, see Table 1 for details.

Chain of JAK3 (h) (P52333 whole entry): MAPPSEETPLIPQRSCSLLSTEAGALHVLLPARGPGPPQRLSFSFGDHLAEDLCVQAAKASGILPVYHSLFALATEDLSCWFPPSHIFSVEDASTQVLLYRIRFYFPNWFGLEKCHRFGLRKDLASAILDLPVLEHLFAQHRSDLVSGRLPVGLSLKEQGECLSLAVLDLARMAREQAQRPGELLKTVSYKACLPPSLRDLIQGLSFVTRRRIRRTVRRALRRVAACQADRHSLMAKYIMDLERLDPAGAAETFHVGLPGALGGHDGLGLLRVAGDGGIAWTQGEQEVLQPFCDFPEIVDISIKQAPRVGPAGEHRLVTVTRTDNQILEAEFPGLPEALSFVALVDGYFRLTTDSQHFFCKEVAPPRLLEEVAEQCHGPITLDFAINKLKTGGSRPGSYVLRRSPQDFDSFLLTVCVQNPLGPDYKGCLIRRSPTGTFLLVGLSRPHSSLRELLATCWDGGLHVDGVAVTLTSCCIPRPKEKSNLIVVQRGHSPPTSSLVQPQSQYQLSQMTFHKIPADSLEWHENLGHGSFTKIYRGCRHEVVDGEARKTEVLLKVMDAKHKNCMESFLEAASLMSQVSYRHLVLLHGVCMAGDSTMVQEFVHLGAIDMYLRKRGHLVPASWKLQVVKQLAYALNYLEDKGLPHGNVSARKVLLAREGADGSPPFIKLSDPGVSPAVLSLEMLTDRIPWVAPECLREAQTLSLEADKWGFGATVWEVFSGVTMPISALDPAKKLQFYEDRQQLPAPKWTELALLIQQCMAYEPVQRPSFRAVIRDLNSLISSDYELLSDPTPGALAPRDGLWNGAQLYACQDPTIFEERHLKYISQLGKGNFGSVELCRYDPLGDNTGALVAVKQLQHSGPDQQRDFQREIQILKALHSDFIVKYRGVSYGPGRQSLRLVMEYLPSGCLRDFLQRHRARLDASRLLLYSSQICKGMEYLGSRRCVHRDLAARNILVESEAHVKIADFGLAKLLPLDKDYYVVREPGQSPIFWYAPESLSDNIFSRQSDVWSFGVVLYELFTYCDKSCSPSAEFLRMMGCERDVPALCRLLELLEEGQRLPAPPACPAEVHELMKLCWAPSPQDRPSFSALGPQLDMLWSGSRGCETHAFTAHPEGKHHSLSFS

Point of comparison: `O=C(Nc1nc2cccc(C3=CC[C@H](NC(=O)[C@H]4CC4(F)F)CC3)n2n1)C1CC1` [Compound 3-4], IC50 2550 nM. Against it:
- O=C(Nc1nc2cccc(C3=CCC(NC(=O)C4CC4)CC3)n2n1)C1CC1 (stereo not drawn) [Compound 1-12] — higher, > 10000 nM
- O=C(Nc1nc2cccc(C3=CCN(C(=O)C4CC4)CC3)n2n1)C1CC1 [Compound 5-4] — higher, > 10000 nM
- O=C(Nc1nc2cccc(C3=CCN(C(=O)C4CC4(F)F)C3)n2n1)C1CC1 (stereo not drawn) [Compound 6-1] — higher, > 10000 nM
- O=C(Nc1nc2cccc(C3=CCN(C(=O)C4(F)CC4)C3)n2n1)C1CC1 [Compound 6-2] — higher, > 10000 nM
- O=C(Nc1nc2nccc(C3CCC(NC(=O)C4CC4(F)F)CC3)c2s1)C1CC1 (stereo not drawn) [Compound 10-9] — higher, > 10000 nM

molecular target: JAK1 (h) (Homo sapiens (Human), UniProt P23458); assay: In vitro activity assay of JAK1 kinase (radiometric 33P-ATP, Eurofins); format: biochemical; settings: recombinant human JAK1
Sequence (P23458 whole entry): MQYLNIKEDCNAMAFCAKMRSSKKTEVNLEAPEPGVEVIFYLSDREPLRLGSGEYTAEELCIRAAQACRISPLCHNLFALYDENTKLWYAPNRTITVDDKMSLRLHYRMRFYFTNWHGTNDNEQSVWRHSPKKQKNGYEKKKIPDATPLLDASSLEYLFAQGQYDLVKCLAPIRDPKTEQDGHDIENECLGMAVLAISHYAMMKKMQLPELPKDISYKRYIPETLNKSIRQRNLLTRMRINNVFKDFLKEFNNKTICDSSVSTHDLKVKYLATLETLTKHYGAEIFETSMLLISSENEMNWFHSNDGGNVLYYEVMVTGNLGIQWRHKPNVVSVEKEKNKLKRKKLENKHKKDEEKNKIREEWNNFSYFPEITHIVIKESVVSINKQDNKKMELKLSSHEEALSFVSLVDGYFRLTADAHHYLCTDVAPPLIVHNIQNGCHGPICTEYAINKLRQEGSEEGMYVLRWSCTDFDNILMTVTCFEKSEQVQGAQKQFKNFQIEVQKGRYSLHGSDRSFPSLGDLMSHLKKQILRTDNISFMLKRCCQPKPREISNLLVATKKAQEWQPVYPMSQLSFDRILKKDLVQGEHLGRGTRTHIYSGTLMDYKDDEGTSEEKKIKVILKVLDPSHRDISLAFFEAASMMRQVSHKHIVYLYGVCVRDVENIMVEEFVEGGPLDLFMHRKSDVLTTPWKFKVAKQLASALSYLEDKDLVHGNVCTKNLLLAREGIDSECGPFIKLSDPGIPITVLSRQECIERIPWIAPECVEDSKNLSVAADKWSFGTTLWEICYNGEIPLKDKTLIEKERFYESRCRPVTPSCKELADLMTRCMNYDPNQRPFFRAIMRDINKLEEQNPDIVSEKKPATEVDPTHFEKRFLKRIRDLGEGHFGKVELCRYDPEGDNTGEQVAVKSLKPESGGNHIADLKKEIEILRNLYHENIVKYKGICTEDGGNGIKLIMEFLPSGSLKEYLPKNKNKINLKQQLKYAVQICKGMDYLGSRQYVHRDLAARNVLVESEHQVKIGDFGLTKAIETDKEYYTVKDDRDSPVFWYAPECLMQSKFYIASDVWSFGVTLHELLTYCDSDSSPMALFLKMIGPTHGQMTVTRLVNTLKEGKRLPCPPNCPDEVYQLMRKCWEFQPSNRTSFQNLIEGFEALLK

Point of comparison: `O=C(Nc1nc2cccc(C3=CC[C@H](NC(=O)[C@@H]4CC4(F)F)CC3)n2n1)C1CC1` [Compound 3-3], IC50 166 nM. Against it:
- O=C(Nc1nc2cccc(C3=CCC(NC(=O)C4CC4)CC3)n2n1)C1CC1 (stereo not drawn) [Compound 1-12] — within 1.5-fold, 149 nM
- O=C(Nc1nc2cccc(C3=CC[C@@H](NC(=O)[C@H]4CC4(F)F)CC3)n2n1)C1CC1 [Compound 3-2] — within 1.5-fold, 163 nM
- O=C(Nc1nc2cccc(C3=CC[C@H](NC(=O)[C@H]4CC4(F)F)CC3)n2n1)C1CC1 [Compound 3-4] — 9.8-fold lower, 17 nM
- O=C(Nc1nc2cccc(C3=CCN(C(=O)C4CC4)CC3)n2n1)C1CC1 [Compound 5-4] — 1.8-fold lower, 90 nM
- O=C(Nc1nc2cccc(C3=CCN(C(=O)C4CC4(F)F)C3)n2n1)C1CC1 (stereo not drawn) [Compound 6-1] — 2.4-fold lower, 70 nM
- O=C(Nc1nc2cccc(C3=CCN(C(=O)C4(F)CC4)C3)n2n1)C1CC1 [Compound 6-2] — 3.2-fold higher, 531 nM
- O=C(Nc1nc2nccc(C3CCC(NC(=O)C4CC4(F)F)CC3)c2s1)C1CC1 (stereo not drawn) [Compound 10-9] — 14-fold higher, 2290 nM

molecular target: TYK2 (h) (Homo sapiens (Human), UniProt P29597); assay: In vitro activity assay of TYK2 kinase (radiometric 33P-ATP, Eurofins); format: biochemical; settings: recombinant human TYK2
Experimental: as §1, §2
as §3, with “TYK2” for “JAK3”, “250” for “500”, “μL” for “μL the”, “reaction” for “reaction solution”
as §4

Chain of TYK2 (h) (P29597 whole entry): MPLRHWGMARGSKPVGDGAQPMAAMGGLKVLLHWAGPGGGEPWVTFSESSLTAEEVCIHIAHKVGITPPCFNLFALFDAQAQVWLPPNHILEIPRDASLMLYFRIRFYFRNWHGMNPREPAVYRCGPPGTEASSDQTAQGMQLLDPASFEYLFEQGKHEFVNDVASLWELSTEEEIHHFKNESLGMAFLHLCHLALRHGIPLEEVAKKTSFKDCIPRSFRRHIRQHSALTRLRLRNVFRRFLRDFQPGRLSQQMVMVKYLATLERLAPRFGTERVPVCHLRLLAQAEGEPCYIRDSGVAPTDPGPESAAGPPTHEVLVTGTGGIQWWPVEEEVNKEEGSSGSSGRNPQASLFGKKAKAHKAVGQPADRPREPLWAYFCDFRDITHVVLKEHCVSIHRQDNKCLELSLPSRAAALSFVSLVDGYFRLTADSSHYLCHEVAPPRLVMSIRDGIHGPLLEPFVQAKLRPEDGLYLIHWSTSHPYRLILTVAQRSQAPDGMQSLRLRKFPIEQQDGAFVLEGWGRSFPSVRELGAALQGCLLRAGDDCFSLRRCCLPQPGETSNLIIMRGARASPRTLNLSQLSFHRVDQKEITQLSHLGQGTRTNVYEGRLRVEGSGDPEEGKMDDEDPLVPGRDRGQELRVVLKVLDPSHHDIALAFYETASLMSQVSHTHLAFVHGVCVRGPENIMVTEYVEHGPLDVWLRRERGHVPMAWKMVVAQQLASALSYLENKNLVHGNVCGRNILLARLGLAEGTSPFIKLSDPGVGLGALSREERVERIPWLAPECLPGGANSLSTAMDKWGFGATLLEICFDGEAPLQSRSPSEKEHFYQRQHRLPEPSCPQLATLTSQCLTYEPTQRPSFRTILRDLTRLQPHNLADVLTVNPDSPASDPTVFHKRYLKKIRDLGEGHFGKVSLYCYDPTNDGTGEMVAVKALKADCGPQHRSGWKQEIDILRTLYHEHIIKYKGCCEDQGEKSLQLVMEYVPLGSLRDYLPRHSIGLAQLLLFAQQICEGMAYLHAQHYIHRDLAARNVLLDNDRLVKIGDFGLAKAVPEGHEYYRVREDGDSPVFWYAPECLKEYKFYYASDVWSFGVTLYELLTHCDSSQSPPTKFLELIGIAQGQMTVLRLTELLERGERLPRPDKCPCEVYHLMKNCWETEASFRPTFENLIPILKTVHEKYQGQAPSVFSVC

Point of comparison: `O=C(Nc1nc2cccc(C3=CC[C@H](NC(=O)[C@H]4CC4(F)F)CC3)n2n1)C1CC1` [Compound 3-4], IC50 71 nM. Against it:
- O=C(Nc1nc2cccc(C3=CCC(NC(=O)C4CC4)CC3)n2n1)C1CC1 (stereo not drawn) [Compound 1-12] — 7-fold higher, 497 nM
- O=C(Nc1nc2cccc(C3=CC[C@@H](NC(=O)[C@H]4CC4(F)F)CC3)n2n1)C1CC1 [Compound 3-2] — 19-fold higher, 1370 nM
- O=C(Nc1nc2cccc(C3=CC[C@H](NC(=O)[C@@H]4CC4(F)F)CC3)n2n1)C1CC1 [Compound 3-3] — 13-fold higher, 942 nM
- O=C(Nc1nc2cccc(C3=CCN(C(=O)C4CC4)CC3)n2n1)C1CC1 [Compound 5-4] — 2.5-fold higher, 178 nM
- O=C(Nc1nc2cccc(C3=CCN(C(=O)C4CC4(F)F)C3)n2n1)C1CC1 (stereo not drawn) [Compound 6-1] — 3.4-fold higher, 244 nM
- O=C(Nc1nc2cccc(C3=CCN(C(=O)C4(F)CC4)C3)n2n1)C1CC1 [Compound 6-2] — 40-fold higher, 2870 nM
- O=C(Nc1nc2nccc(C3CCC(NC(=O)C4CC4(F)F)CC3)c2s1)C1CC1 (stereo not drawn) [Compound 10-9] — 3.5-fold higher, 245 nM

test system: adjuvant-induced arthritis rat model; assay: In vivo drug efficacy study in an adjuvant-induced arthritis model (AIA); settings: 0.3 mg/kg p.o. qd 14 d

In the case of `C[C@@H]1C[C@H]2[C@@H]3CCC4=CC(=O)C=C[C@]4(C)[C@@]3(F)[C@@H](O)C[C@]2(C)[C@@]1(O)C(=O)CO` [Dexamethasone, reference compound], the “inhibition rate relative to the vehicle control group (foot volume curve AUC)” value is reported as 44.9%.

same assay, conditions: 0.3 mg/kg p.o. qd 14 d; end of the experiment; vehicle 2.8 mL

For `C[C@@H]1C[C@H]2[C@@H]3CCC4=CC(=O)C=C[C@]4(C)[C@@]3(F)[C@@H](O)C[C@]2(C)[C@@]1(O)C(=O)CO` [Dexamethasone, reference compound], the “average foot volume of arthritis rat” value was 1.1 mL.

same assay, conditions: 0.3 mg/kg p.o. qd 14 d; from the 23rd day until the end of the experiment

`C[C@@H]1C[C@H]2[C@@H]3CCC4=CC(=O)C=C[C@]4(C)[C@@]3(F)[C@@H](O)C[C@]2(C)[C@@]1(O)C(=O)CO` [Dexamethasone, reference compound] was tested, and the “clinical score of arthritis rats” value was “about 2.0”.

molecular target: JAK2 (h) (Homo sapiens (Human), UniProt O60674); assay: In vitro activity assay of JAK2 kinase (radiometric 33P-ATP, Eurofins); format: biochemical; settings: recombinant human JAK2
Sequence (O60674 whole entry): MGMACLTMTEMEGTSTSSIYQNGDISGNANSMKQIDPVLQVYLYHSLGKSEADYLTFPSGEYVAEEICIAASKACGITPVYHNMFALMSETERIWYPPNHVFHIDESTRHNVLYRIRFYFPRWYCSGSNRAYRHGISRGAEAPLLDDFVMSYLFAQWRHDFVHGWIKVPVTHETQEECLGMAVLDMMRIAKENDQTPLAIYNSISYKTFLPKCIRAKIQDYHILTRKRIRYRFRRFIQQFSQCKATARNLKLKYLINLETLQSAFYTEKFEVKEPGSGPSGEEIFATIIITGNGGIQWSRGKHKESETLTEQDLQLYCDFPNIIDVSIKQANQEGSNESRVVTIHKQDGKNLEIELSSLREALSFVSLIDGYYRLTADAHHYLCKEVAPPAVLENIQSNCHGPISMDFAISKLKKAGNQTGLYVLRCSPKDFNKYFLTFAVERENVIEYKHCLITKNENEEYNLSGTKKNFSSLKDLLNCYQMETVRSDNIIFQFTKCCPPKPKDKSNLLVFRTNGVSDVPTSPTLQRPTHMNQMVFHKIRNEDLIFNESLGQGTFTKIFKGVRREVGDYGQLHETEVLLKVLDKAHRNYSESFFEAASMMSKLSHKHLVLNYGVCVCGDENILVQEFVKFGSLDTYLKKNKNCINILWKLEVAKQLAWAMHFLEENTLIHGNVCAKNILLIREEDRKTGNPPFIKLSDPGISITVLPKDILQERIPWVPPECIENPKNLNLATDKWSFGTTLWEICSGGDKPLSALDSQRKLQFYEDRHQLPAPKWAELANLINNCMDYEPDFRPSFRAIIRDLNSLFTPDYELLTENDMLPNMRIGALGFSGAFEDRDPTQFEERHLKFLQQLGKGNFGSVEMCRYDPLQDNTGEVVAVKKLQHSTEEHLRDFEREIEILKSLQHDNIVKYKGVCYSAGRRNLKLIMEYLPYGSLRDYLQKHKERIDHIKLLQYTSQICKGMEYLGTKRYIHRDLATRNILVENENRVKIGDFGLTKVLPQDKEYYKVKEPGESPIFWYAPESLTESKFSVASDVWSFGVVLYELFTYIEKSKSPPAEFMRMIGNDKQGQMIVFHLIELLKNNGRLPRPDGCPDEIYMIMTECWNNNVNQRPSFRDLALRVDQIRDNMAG

Point of comparison: `O=C(Nc1nc2cccc(C3=CCN(C(=O)C4(F)CC4)C3)n2n1)C1CC1` [Compound 6-2], IC50 1120 nM. Against it:
- O=C(Nc1nc2cccc(C3=CCC(NC(=O)C4CC4)CC3)n2n1)C1CC1 (stereo not drawn) [Compound 1-12] — within 1.5-fold, 1420 nM
- O=C(Nc1nc2cccc(C3=CC[C@H](NC(=O)[C@H]4CC4(F)F)CC3)n2n1)C1CC1 [Compound 3-4] — 8.9-fold lower, 126 nM
- O=C(Nc1nc2cccc(C3=CCN(C(=O)C4CC4)CC3)n2n1)C1CC1 [Compound 5-4] — 2.7-fold lower, 422 nM
- O=C(Nc1nc2nccc(C3CCC(NC(=O)C4CC4(F)F)CC3)c2s1)C1CC1 (stereo not drawn) [Compound 10-9] — higher, > 10000 nM
